Laboratory results: patent publication US9808470B2, “Estrogenic components for use in the treatment of neurological disorders” (UNIVERSITE DE LIEGE, priority 2012, dated 2017)

Key:
CD11b-positive cells = experiment: Ex.6 IL-1β induced diffuse white matter injury mouse model: microglial phenotype gene expression (qRT-PCR); format: in vivo
Experimental: Experimental protocols were approved by the institutional guidelines of the Institut National de la Santé et de la Recherche Scientifique (Inserm, France), and met the guidelines for the United States Public Health Service's Policy on Humane Care and Use of Laboratory Animals (NIH, Bethesda, Md., USA). Experiments were performed using OF1 strain mice purchased from Charles River (L'Arbresle, France) and born in our animal facility. Animals were housed under a 12 h light-dark cycle, had access to food and water ad libitum. Sex was determined at birth and confirmed at sacrifice. To avoid any potential variability linked to sex to differences. only male pups were used. Mice received twice a day from P1 to P4 and once on P5 a 5 μl intraperitoneal injection containing either PBS alone (sham group) or 10 μg/kg/dose recombinant mouse IL-1β in PBS. Vehicle group received only IL-1β injections while 10 μg E4 (5 mg/kg) or 20 μg E4 (10 mg/kg) was added to IL-1β once a day from P1 to P5 for E4 treated groups. Pups were sacrificed 3 hours after the first intraperitoneal injection at P1, 3 hours after last treatment at P5 or at P10 by intracardiac perfusion with NaCl 0.9% after anaesthesia by inhaled isoflurane.
At P1 and P5, brains were collected for cell dissociation and CD11b-positive (P1 and P5) and O4-positive (P5) cell enrichment using a magnetic coupled antibody extraction technique (MACS), as previously described and according to the manufacturer's protocol (Miltenyi Biotec, Bergisch Gladbach, Germany). The CD11b antigen is expressed on the surface of microglial cells while the O4 antigen is expressed on the cell surface of pre-OLs (Back et al., 2001). Briefly, after removing the cerebellum and olfactory bulbs, brains were pooled (n=3 at P1 and n=2 at P5) and dissociated using the neural tissue dissociation kit containing papain. From the resulting brain homogenate CD11b-positive cells (P1) and O4-positive then CD11b-positive cells (P5) were enriched by MACS, using the anti-CD11b or anti-O4 MicroBeads. After elution the isolated cells were centrifuged for 5 min at 600 g at 4° C. and conserved at −80° C.
Preparation of samples for quantitative reverse-transcriptase polymerase-chain reaction (qRT-PCR), primer design, and PCR protocol, were similar to that previously described (Favrais et al., 2011; Chhor et al., 2013). Briefly, RNA extraction was performed by with RNeasy mini kit according to the manufacturer's instructions (Qiagen, Courtaboeuf, France). RNA quality and concentration were assessed by spectrophotometry with the Nanodrop™ apparatus (Thermoscientific, Wilmington, Del., USA). Total RNA (0.5-1 μg) was subjected to reverse transcription using the iScript™ cDNA synthesis kit (Bio-Rad, Marnes-la-Coquette, France). qPCR was using SYBR Green Supermix (Bio-Rad). The relative expression of genes of interest (GOI) were expressed relative to expression of the reference gene, ribosomal protein L13a (Rpl13a) for CD11b+ cells and Glyceraldehyde 3-phosphate dehydrogenase (GAPDH) for O4+ cells and anterior brains based on reference gene suitability testing. Analyses were performed with the Biorad CFX manager 2.1 software. The relative quantities are expressed as the specific ratio between the gene of interest and Rpl13 or GAPDH. The data are presented as relative mRNA units with respect to control values (expressed as a fold-difference with respect to the mean of sham values).

[1] = system: vascular endothelial growth factor (VEGF); experiment: Ex.3 neuroprotective HIE rat model: VEGF staining; format: in vivo
Experimental: The sections were heated in 10 mmol/L citrate buffer (pH 6.0) at 100° C. for 10 minutes. Endogenous peroxidase activity was blocked with 3% hydrogen peroxide for 10 minutes and after a second blocking with 5% normal goat serum, the sections were incubated with anti-doublecortin (DCX) antibody, diluted 1:1000 (rabbit polyclonal antibody; Abcam, Cambridge, UK) and anti-vascular endothelial growth factor (VEGF) antibody, diluted 1:100 (mouse monoclonal antibody; Abcam, Cambridge, UK) overnight at 4° C. After rinsing, Alexa Fluor® goat anti-rabbit, diluted 1:1000 and Alexa Fluor® goat anti-mouse, diluted 1:1000 (Invitrogen Inc., Ghent, Belgium) were added and sections were incubated 1 h at room temperature. Mounting medium containing 4′,6-diamidino-2-phenylindole (DAPI) for fluorescent studies was used (Vector Laboratories). Samples were analyzed with the aid of a microscope (Olympus Vanox AHBT3, Olympus), and the ImageJ software (NIH). The percentage of positively stained cells was quantified as a sum of positively stained either DCX or VEGF cells divided by the total number of DAPI positive cells expressed in percentage.
Newborn rat pups were assigned to one of the following 6 groups from postnatal day 4: Sham group (n=24), Vehicle group (n=14), E4 1 mg/kg/per day group (n=11), E4 5 mg/kg/per day group (n=14), E4 10 mg/kg/per day group (n=14), or E4 50 mg/kg/per day group (n=19). From postnatal day 4, rat pups were intraperitoneally injected either vehicle (Vehicle group) or E4 (1, 5, 10, or 50 mg/kg/per day in accordance to the E4 group assignment) or neither vehicle nor E4 (Sham group). At day 7, 30 minutes after last injection, animals were anesthetized with isoflurane (induction, 3.0%; maintenance, 1.5%), and the rat pups from Vehicle and E4 groups passed through surgery encompassing left common carotid artery double ligation and cut. After the procedure, the pups were returned to their dams and were allowed to recover for 1 hour. The pups were then placed in the humidified hypoxic in vivo cabinet (CoyLab, Grass Lake, Mich., USA). Hypoxia was produced by the inhalation of 11%-8% of oxygen balanced by nitrogen at decreased concentration of oxygen for 20 minutes, followed by inhalation of 8% oxygen and 92% nitrogen at constant concentration for 35 minutes. All the manipulations were performed at 37° C. The Sham group went through similar procedures without left common carotid artery ligation followed by hypoxia nor injection. Rat pups recovered with their dams and reared normally until being sacrificed at postnatal day 14.

[2] = IL-1β P1 to P5 + E4 10 mg/kg, P5
[3] = IL-1β+E4 5 mg/kg ip, P1, 3 h post-treatment, vs IL-1β group
[4] = IL-1β+E4 5 and 10 mg/kg ip, P1, vs IL-1β group

C[C@]12CC[C@@H]3c4ccc(O)cc4CC[C@H]3[C@@H]1[C@@H](O)[C@@H](O)[C@@H]2O [E4, 1,3,5(10)-estratrien-3,15α,16α,17β-tetrol]
over-expression of IL1Rn (M2b) (CD11b-positive cells; IL-1β P1 to P5 + E4 5 mg/kg, P5): significantly limited
inflammation induced over-expression of IL1Rn (M2b) (CD11b-positive cells; [2]): prevented
inflammation induced over-expression of IL4Ra (M2b) (CD11b-positive cells; [2]): prevented
inflammation induced over-expression of iNOS (M1) (CD11b-positive cells; [2]): prevented
expression of CD32 mRNA (M1) (CD11b-positive cells; [3]): significantly down-regulated
expression of CD86 mRNA (M1) (CD11b-positive cells; [3]): significantly down-regulated
expression of genes associated with the M2a repair/regeneration phenotype (CD11b-positive cells; IL-1β+E4 10 mg/kg ip, P1): non-significant trend to the up-regulation
expression of Ptgs2 mRNA (M1) (CD11b-positive cells; IL-1β+E4 10 mg/kg ip, P1, vs IL-1β group): significantly decreased
expression of IL1RN (M2b) (CD11b-positive cells; [4]): decreased
expression of Sphk1 (M2b) (CD11b-positive cells; [4]): decreased
iNOS mRNA (M1) (CD11b-positive cells; [4]): significantly decreased
percentage of VEGF positively stained cells ([1]; 1 mg/kg E4 ip PND4-7 before HI, CA2/CA3): 34.1±6.855%
percentage of VEGF positively stained cells ([1]; 1 mg/kg E4 ip PND4-7 before HI, DG): 43.5±2.083%
percentage of VEGF positively stained cells ([1]; 5 mg/kg E4 ip PND4-7 before HI, DG): 46.0±4.361%
percentage of VEGF positively stained cells ([1]; 10 mg/kg E4 ip PND4-7 before HI, CA1): 37.4±7.645%
percentage of VEGF positively stained cells ([1]; 10 mg/kg E4 ip PND4-7 before HI, DG): 47.0±5.362%
percentage of VEGF positively stained cells ([1]; 10 mg/kg E4 ip PND4-7 before HI, cortex): 46.2±7.646%
percentage of VEGF positively stained cells ([1]; 50 mg/kg E4 ip PND4-7 before HI, DG): 46.0±4.465%
